The nature of data set [1]: Compound induced cellular toxicity in HepG2 cells, ATPlite 1Step. The format is cell-based. The settings on record: human, three days exposure, 50% reduction of total ATP vs no drug controls. How it is done:
At day 3, post seeding cells are treated with ATPlite 1Step according to the manufacturer's instructions.

The test system of another data set is HBV in 2.2.15 cells. The data set can be described thus: 2.2.15 cells: viral product in cell lysates quantified via quantitative real time PCR. The settings on record: Hepatitis B virus, 120 h, day 5 post treatment, 50% reduction of viral product vs no drug controls, readout (qPCR, HBsAg or HBeAg) not specified for the column. In kind it is cell-based, hepatitis B virus (HBV). The method, boiled down:
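HBV product was measured at day 5 by lysate qPCR or by supernatant HBsAg/HBeAg ELISA, in 2.2.15 cells seeded at 35,000/well and exposed to 5-fold compound dilution series (0.5% DMSO). EC50 is 50% reduction of viral product relative to untreated controls.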

For the compound `Cc1cc(-c2cc3n(n2)C[C@@H](C(C)(C)C)n2cc(C(=O)O)c(=O)cc2-3)c(F)cc1F` [Example 39, (R)-6-(tert-butyl)-2-(2,4-difluoro-5-methylphenyl)-10-oxo-5,6-dihydro-10H-pyrazolo[1,5-a]pyrido[2,2-c]pyrazine-12-carboxylic acid], the 50% cytotoxic concentration (CC50) at 3 days in data set [1] was more than 25000 nM. Moreover, the EC50 in the data set on HBV in 2.2.15 cells is less than 100 nM.

As to `CC(C)(C)[C@@H]1Cn2nc(-c3c(F)cccc3F)cc2-c2cc(=O)c(C(=O)O)cn21` [Example 29, (R)-6-(tert-butyl)-2-(2,6-difluorophenyl)-10-oxo-5,6-dihydro-10H-pyrazolo[1,5-a]pyrido[2,2-c]pyrazine-12-carboxylic acid], the CC50 at 3 days in data set [1] is more than 25000 nM. The compound further gave an EC50 with HBV in 2.2.15 cells of less than 100 nM.

In the case of `CC(C)(C)[C@@H]1Cn2nc(-c3cccc4c3OCO4)cc2-c2cc(=O)c(C(=O)O)cn21` [Example 26, (R)-2-(benzo[d][1,3]dioxol-4-yl)-6-(tert-butyl)-10-oxo-5,6-dihydro-10H-pyrazolo[1,5-a]pyrido[2,2-c]pyrazine-12-carboxylic acid], the CC50 at 3 days in data set [1] is more than 25000 nM. The compound also displayed an EC50 in the data set on HBV in 2.2.15 cells of less than 100 nM.

As for `CC(C)[C@@H]1Cn2nc(-c3ccccc3F)c(-c3ccccc3F)c2-c2cc(=O)c(C(=O)O)cn21` [Example 171, (R)-1,2-bis(2-fluorophenyl)-6-isopropyl-10-oxo-5,6-dihydro-10H-pyrazolo[1,5-a]pyrido[2,1-c]pyrazine-9-carboxylic acid], the CC50 at 3 days in data set [1] was more than 25000 nM. This compound gave a concentration giving a half-maximal response (EC50) with HBV in 2.2.15 cells of less than 100 nM.

Turning to `CC(C)[C@@H]1Cn2nc(C3CC3)c(-c3ccsc3)c2-c2cc(=O)c(C(=O)O)cn21` [Example 128, (R)-2-cyclopropyl-6-isopropyl-10-oxo-1-(thiophen-3-yl)-5,6-dihydro-10H-pyrazolo[1,5-a]pyrido[2,1-c]pyrazine-9-carboxylic acid], the half-maximal cytotoxic concentration (CC50) at 3 days in data set [1] was more than 25000 nM. In the data set on HBV in 2.2.15 cells, this compound yielded an EC50 of less than 100 nM.

Turning to `CC(C)(C)[C@@H]1Cn2nc(-c3cccc(F)c3)c(-c3cccc(F)c3)c2-c2cc(=O)c(C(=O)O)cn21` [Example 94, (R)-6-(tert-butyl)-1,2-bis(3-fluorophenyl)-10-oxo-5,6-dihydro-10H-pyrazolo[1,5-a]pyrido[2,1-c]pyrazine-9-carboxylic acid], the CC50 at 3 days in data set [1] is more than 25000 nM. The same compound gave an EC50 in the data set with HBV in 2.2.15 cells of less than 100 nM.

`CC(C)(C)[C@@H]1Cn2nc(-c3ccncc3F)cc2-c2cc(=O)c(C(=O)O)cn21` [Example 41, (R)-6-(tert-butyl)-2-(3-fluoropyridin-4-yl)-10-oxo-5,6-dihydro-10H-pyrazolo[1,5-a]pyrido[2,2-c]pyrazine-12-carboxylic acid] returned a CC50 at 3 days in data set [1] of more than 25000 nM. Further, the EC50 in the data set on HBV in 2.2.15 cells was less than 100 nM.

In the case of `CC(C)(C)[C@@H]1Cn2ncc(-c3cccs3)c2-c2cc(=O)c(C(=O)O)cn21` [Example 109, (R)-6-(tert-butyl)-10-oxo-1-(thiophen-2-yl)-5,6-dihydro-10H-pyrazolo[1,5-a]pyrido[2,1-c]pyrazine-9-carboxylic acid], in data set [1], the CC50 at 3 days is more than 25000 nM. The EC50 in the data set with HBV in 2.2.15 cells was less than 100 nM.

`Cc1cccc(F)c1-c1cc2n(n1)C[C@@H](C(C)(C)C)n1cc(C(=O)O)c(=O)cc1-2` [Example 51, (R)-6-(tert-butyl)-2-(2-fluoro-6-methylphenyl)-10-oxo-5,6-dihydro-10H-pyrazolo[1,5-a]pyrido[2,2-c]pyrazine-12-carboxylic acid]: in data set [1], the CC50 at 3 days is more than 25000 nM. The compound further registered an EC50 in the data set on HBV in 2.2.15 cells of 200 to 1000 nM.

In data set [1], `COCCOc1ccccc1-c1cc2n(n1)C[C@@H](C(C)(C)C)n1cc(C(=O)O)c(=O)cc1-2` [Example 79, (R)-6-(tert-butyl)-2-(2-(2-methoxyethoxy)phenyl)-10-oxo-5,6-dihydro-10H-pyrazolo[1,5-a]pyrido[2,2-c]pyrazine-12-carboxylic acid] came in with a cytotoxic concentration (CC50) at 3 days of more than 25000 nM. In addition, the EC50 in the data set on HBV in 2.2.15 cells is less than 100 nM.

The compound `CC(C)(C)[C@@H]1Cn2nc(-c3cc(F)ccc3F)cc2-c2cc(=O)c(C(=O)O)cn21` [Example 61, (R)-6-(tert-butyl)-2-(2,5-difluorophenyl)-10-oxo-5,6-dihydro-10H-pyrazolo[1,5-a]pyrido[2,2-c]pyrazine-12-carboxylic acid] came in with a CC50 at 3 days in data set [1] of more than 25000 nM. In the data set with HBV in 2.2.15 cells, the EC50 is less than 100 nM.

Turning to `COc1ccccc1-c1cnn2c1-c1cc(=O)c(C(=O)O)cn1[C@H](C(C)(C)C)C2` [Example 112, (R)-6-(tert-butyl)-1-(2-methoxyphenyl)-10-oxo-5,6-dihydro-10H-pyrazolo[1,5-a]pyrido[2,1-c]pyrazine-9-carboxylic acid], in data set [1], the half-maximal cytotoxic concentration (CC50) at 3 days was more than 25000 nM. In the data set with HBV in 2.2.15 cells, this compound gave an EC50 of less than 100 nM.

Turning to `CC(C)(C)[C@@H]1Cn2ncc(-c3c(F)ccc4c3OCO4)c2-c2cc(=O)c(C(=O)O)cn21` [Example 123, (R)-6-(tert-butyl)-1-(5-fluorobenzo[d][1,3]dioxol-4-yl)-10-oxo-5,6-dihydro-10H-pyrazolo[1,5-a]pyrido[2,1-c]pyrazine-9-carboxylic acid], the CC50 at 3 days in data set [1] was more than 25000 nM. For the same compound, the EC50 with HBV in 2.2.15 cells is less than 100 nM.

In data set [1], `Cc1cccc(C)c1-c1cc2n(n1)C[C@@H](C(C)(C)C)n1cc(C(=O)O)c(=O)cc1-2` [Example 62, (R)-6-(tert-butyl)-2-(2,6-dimethylphenyl)-10-oxo-5,6-dihydro-10H-pyrazolo[1,5-a]pyrido[2,2-c]pyrazine-12-carboxylic acid] gave a CC50 at 3 days of more than 25000 nM. Further, the EC50 in the data set with HBV in 2.2.15 cells lay within 200 to 1000 nM.

As for `CC(C)(C)[C@@H]1Cn2nc(-c3ccccc3OCC3CC3)cc2-c2cc(=O)c(C(=O)O)cn21` [Example 75, (R)-6-(tert-butyl)-2-(2-(cyclopropylmethoxy)phenyl)-10-oxo-5,6-dihydro-10H-pyrazolo[1,5-a]pyrido[2,2-c]pyrazine-12-carboxylic acid], the CC50 at 3 days in data set [1] is more than 25000 nM. Also, the concentration giving a half-maximal response (EC50) in the data set with HBV in 2.2.15 cells is less than 100 nM.

`Cc1ccc(-c2cc3n(n2)C[C@@H](C(C)(C)C)n2cc(C(=O)O)c(=O)cc2-3)cc1` [Example 20, (R)-6-(tert-butyl)-10-oxo-2-(p-tolyl)-5,6-dihydro-10H-pyrazolo[1,5-a]pyrido[2,2-c]pyrazine-12-carboxylic acid] showed a half-maximal cytotoxic concentration (CC50) at 3 days in data set [1] of more than 25000 nM. In addition, the EC50 with HBV in 2.2.15 cells is less than 100 nM.

With `CC(C)(C)[C@@H]1Cn2nc(-c3cccc4c3OCC4)cc2-c2cc(=O)c(C(=O)O)cn21` [Example 59, (R)-6-(tert-butyl)-2-(2,3-dihydrobenzofuran-7-yl)-10-oxo-5,6-dihydro-10H-pyrazolo[1,5-a]pyrido[2,2-c]pyrazine-12-carboxylic acid], the half-maximal cytotoxic concentration (CC50) at 3 days in data set [1] was more than 25000 nM. The compound also came in with a half-maximal effective concentration (EC50) in the data set on HBV in 2.2.15 cells of less than 100 nM.

In data set [1], `CC(C)(C)[C@@H]1Cn2nc(-c3ccc(F)c4c3OCO4)cc2-c2cc(=O)c(C(=O)O)cn21` [Example 22, (R)-6-(tert-butyl)-2-(7-fluorobenzo[d][1,3]dioxol-4-yl)-10-oxo-5,6-dihydro-10H-pyrazolo[1,5-a]pyrido[2,2-c]pyrazine-12-carboxylic acid] showed a CC50 at 3 days of more than 25000 nM. Besides, in the data set on HBV in 2.2.15 cells, the concentration giving a half-maximal response (EC50) was less than 100 nM.

In data set [1], `CC(C)(C)[C@@H]1Cn2nc(-c3ccc(F)cc3)c(-c3ccccc3)c2-c2cc(=O)c(C(=O)O)cn21` [Example 166, (R)-6-(tert-butyl)-2-(4-fluorophenyl)-10-oxo-1-phenyl-5,6-dihydro-10H-pyrazolo[1,5-a]pyrido[2,1-c]pyrazine-9-carboxylic acid] had a CC50 at 3 days of more than 25000 nM. Further, the EC50 in the data set on HBV in 2.2.15 cells is less than 100 nM.

As to `CC(C)(C)[C@@H]1Cn2nnc(-c3ccc(F)cc3)c2-c2cc(=O)c(C(=O)O)cn21` [Example 208, (R)-6-(tert-butyl)-1-(4-fluorophenyl)-10-oxo-5,6-dihydro-10H-pyrido[1,2-a][1,2,3]triazolo[5,1-c]pyrazine-9-carboxylic acid], in data set [1], the CC50 at 3 days is more than 25000 nM. Moreover, the EC50 in the data set with HBV in 2.2.15 cells is less than 100 nM.

In the case of `CC(C)[C@@H]1Cn2nc(C3CC3)c(-c3ccccc3)c2-c2cc(=O)c(C(=O)O)cn21` [Example 130, (R)-2-cyclopropyl-6-isopropyl-10-oxo-1-phenyl-5,6-dihydro-10H-pyrazolo[1,5-a]pyrido[2,1-c]pyrazine-9-carboxylic acid], the half-maximal cytotoxic concentration (CC50) at 3 days in data set [1] was more than 25000 nM. In addition, the half-maximal effective concentration (EC50) with HBV in 2.2.15 cells was less than 100 nM.

The compound `CC(C)(C)[C@@H]1Cn2nc(-c3cccc4scnc34)cc2-c2cc(=O)c(C(=O)O)cn21` [Example 31, (R)-2-(benzo[d]thiazol-4-yl)-6-(tert-butyl)-10-oxo-5,6-dihydro-10H-pyrazolo[1,5-a]pyrido[2,2-c]pyrazine-12-carboxylic acid] showed a CC50 at 3 days in data set [1] of more than 25000 nM. This compound also had an EC50 in the data set on HBV in 2.2.15 cells of less than 100 nM.

For the compound `COc1c(-c2cc3n(n2)C[C@@H](C(C)(C)C)n2cc(C(=O)O)c(=O)cc2-3)ccc(F)c1F` [Example 69, (R)-6-(tert-butyl)-2-(3,4-difluoro-2-methoxyphenyl)-10-oxo-5,6-dihydro-10H-pyrazolo[1,5-a]pyrido[2,2-c]pyrazine-12-carboxylic acid], in data set [1], the 50% cytotoxic concentration (CC50) at 3 days was more than 25000 nM. Besides, in the data set on HBV in 2.2.15 cells, the EC50 is less than 100 nM.

Consider `CC(C)(C)[C@@H]1Cn2nc(-c3ccccc3F)c(-c3ccccc3F)c2-c2cc(=O)c(C(=O)O)cn21` [Example 95, (R)-6-(tert-butyl)-1,2-bis(2-fluorophenyl)-10-oxo-5,6-dihydro-10H-pyrazolo[1,5-a]pyrido[2,1-c]pyrazine-9-carboxylic acid], for which the 50% cytotoxic concentration (CC50) at 3 days in data set [1] is more than 25000 nM. Moreover, the EC50 in the data set with HBV in 2.2.15 cells was less than 100 nM.

On to `CC(C)(C)[C@@H]1Cn2ncc(-c3ccoc3)c2-c2cc(=O)c(C(=O)O)cn21` [Example 102, (R)-6-(tert-butyl)-1-(furan-3-yl)-10-oxo-5,6-dihydro-10H-pyrazolo[1,5-a]pyrido[2,1-c]pyrazine-9-carboxylic acid], for which the cytotoxic concentration (CC50) at 3 days in data set [1] is more than 25000 nM. The compound also returned an EC50 with HBV in 2.2.15 cells of less than 100 nM.

The values above are taken from patent US12264159B2, “Functionalized heterocycles as antiviral agents” (Enanta Pharmaceuticals, Inc., priority 2018, dated 2025).
